From a melting point compilation (Tetko et al.; mined from patent text by program, amines drawn as free bases though some values may be those of a salt)

| SMILES | melting point [°C] |
| --- | --- |
| CNC1Cc2ccccc2C1Nc1ccc(Cc2ccccc2)cc1 (stereo unspecified) | 137 to 138 |
| CC(O)Cn1cnc2cnc3ccccc3c21 (stereo unspecified) | 171 |
| CN1CC(NCc2ccccc2)=Nc2ccc(Cl)cc2C1=O | 158 to 160 |
| Cn1c(=O)c(C#N)c(Cl)c2ccccc21 | 235 |
| O=C(c1ccccc1)C(Cl)(Cl)C1CCCCC1 | 92.5 to 94 |
| COCC(=O)Nc1ccc(C2=NNC(=O)CC2C)cc1 (stereo unspecified) | 212 |
| COc1ccc(N2C[C@](C)(CO)OC2=O)cc1 | 131 to 132 |
| CCOc1ccc(C2=NN(c3ccc(C(=O)N4CCN(c5ccc(C(F)(F)F)cn5)CC4)cc3)C(=O)[C@@H]3CC=CC[C@H]23)cc1OCC | 121 to 123 |
| COc1ccc2c(c1)C(=O)CCC21CCC(=O)N(C)C1=O (stereo unspecified) | 116 to 118 |
| Cc1cn(CC(O)(CC(C)(C)c2cccc3c2OCC3)C(F)(F)F)c(CO)c(C)c1=O (stereo unspecified) | 160 to 162 |
| O=C1CCC(Cn2c(=O)[nH]c3ncc(-c4ccc(O)cc4)nc32)N1 (stereo unspecified) | 338 to 340 |
| Cc1nc(-n2cnn(CC3CC3)c2=O)sc1C(=O)NCc1ccncc1 | 169 to 170 |
| CCCCC(CC)C(=O)Nc1ccc2ccn(Cc3ccc(C(=O)O)cc3OC)c2c1 (stereo unspecified) | 234 to 235 |
| CC(CN1C(=O)c2ccccc2C1=O)C(=NO)n1nc(C(C)(C)C)cc1N (stereo unspecified) | 198 to 199 |
| CO[C@@H](C)CNC(=O)c1c[nH]c2ncc(-c3nn(C)c4cc(F)ccc34)nc12 | 269 to 271 |
| COc1ccc(-c2cc(=O)c3cc(OCCCCCN4CCC(O)CC4)ccc3o2)cc1 | 138 to 139 |
| CC1(C)Cc2ccc(C#N)cc2N(C(=O)Nc2ccccc2)C1 | 170 to 171 |
| COC(=O)[C@H]1OC(O)[C@H](OC(=O)C(C)C)[C@@H](OC(=O)C(C)C)[C@@H]1OC(=O)C(C)C (stereo partly specified) | 89 |
| N#CCCn1nc(-c2ccccc2)ccc1=O | 103 to 104 |
| NS(=O)(=O)Oc1ccc(C(F)(F)F)cc1 | 111 to 112 |
| O=C(NC1(C(=O)O)CC1)OCCOC(=O)c1ccccc1 | 174 to 176 |
| CC(C)(C)OC(=O)N1CCc2c(n(CCCc3ccccc3)c3ccc(Cl)c(Cl)c23)CC1 | 114 to 116 |
| CCCOC(=O)C(N)C=CCP(=O)(O)O (stereo unspecified) | 161 to 162 |
| COc1ccc(CNC(=O)C23CC4CC(CC(C4)C2)C3)cc1OC | 120 to 122 |
| N=C(Nc1ccc2c(c1)CN1CCOCC1C2)c1cccs1 (stereo unspecified) | 190 to 194 |
| O=C1CCC(N2C(=O)c3ccccc3C2=S)C(=O)N1 (stereo unspecified) | 255 |

| SMILES | melting point [°C] |
| --- | --- |
| COc1cc(-n2nc(C(F)(F)F)cc2C(F)(F)F)ccc1NC(=O)c1snnc1C | 119 to 121 |
| CCNC(=S)NC1=Nc2ccc(OC(F)(F)F)cc2CS1 | 169 to 172 |
| COc1ccc(Cl)cc1C1(F)C(=O)Nc2ccc(Br)cc21 (stereo unspecified) | 206 to 208 |
| N#CC(C#N)C(c1cccc2ccccc12)c1cccc2ccccc12 | 179 to 181 |
| CCCCCCCCCCCCCCC(=S)NCCCN1CCOCC1 | 46 |
| C[C@]12CCC(=O)N[C@@H]1CCc1cc(Sc3ccc(F)cc3)ccc12 | 179 to 181 |
| CCN1CC(=O)Nc2cc(NC3(C(N)=O)CC4CC3C=C4Cl)c(OC)cc2C1 (stereo unspecified) | 154 to 156 |
| COCCOc1ccc(/C=C/COC(=O)NS(=O)(=O)NCCc2ccccc2)c(Oc2ncc(C(F)(F)F)cc2Cl)c1 | 113 to 114 |
| COc1ccc(C(CN)C2CCCCC2O)cc1 (mixture of isomers) | 79 to 81 |
| O=c1[nH]c2cc(Cl)ccc2c(O)c1Sc1ccccc1 | > 300 |
| C[C@]1(COc2ccc(N3CCN(c4ccc(OC(F)(F)F)cc4)CC3)cc2)Cn2cc([N+](=O)[O-])nc2O1 | 262 to 265 |
| CCOC(=O)c1c(N=Cc2cccs2)sc(N=Cc2ccc([N+](=O)[O-])s2)c1C(=O)OCC | 220 to 222 |
| COc1ccc(C2CCCC(=O)N2c2ccc(OC)cc2)cc1 (stereo unspecified) | 108 to 109 |
| Cc1ccc(S(=O)(=O)NCCCCOc2ccc(-c3nc(-c4ccc(Cl)cc4)cs3)cc2)cc1 | 158 to 159 |
| COc1cc(Nc2c(C#N)cnc3c2C=C2N=C(NCCN4CCOCC4)N=C2C3)cc(OC)c1OC | 175 to 178 |
| CCOC(=O)Nc1cccc(CBr)c1C(=O)OCC | 70 to 72 |
| CCC(=O)NCCC1CNc2ccc3c(c21)CCO3 (stereo unspecified) | 96 to 98 |
| CCN1CCc2cc(Nc3ncc(Cl)c(Nc4ccccc4C(=O)NC)n3)c(OC)c(N)c2CC1 | 117 to 160 |
| COC(=O)[C@H]1CC[C@@H](C(=O)O)CN1S(C)(=O)=O (racemic) | 130 to 133 |
| Cc1ccc(Cl)cc1-c1cccc2c1OC(CN)C2 (stereo unspecified) | 146 to 150 |
| CN(C(F)F)S(=O)(=O)c1ccccc1S(N)(=O)=O | 128 |
| CC(C)C[C@H](NC(=O)CCCc1ccccc1)C(=O)N[C@@H](C(C)C)[C@@H](O)c1c(-c2ccccc2)c1=O | 91 to 96 |
| CN1Cc2c(n(-c3ccc(F)cc3)c3ccc(F)cc23)C1 | 160 to 165 |
| CCn1c2cccc(C=O)c2c2c3ccccc3ccc21 | 90.5 to 91.5 |
| CC(=O)Nc1c(C(=O)Cc2ccccc2)[nH]c2cc(Cl)ccc12 | 258 to 259 |
| C#CCc1c(C)nc(C)nc1NCc1ccc(-c2ccccc2-c2nnn[nH]2)cc1 | 205 to 206 |

| SMILES | melting point [°C] |
| --- | --- |
| CCCCCCCCC(CCC(=O)O)(CCC(=O)O)C(C)=O | 69 to 71 |
| NC(=O)c1nnsc1NCCCCCCCCCCCCCCc1ccccc1 | 79 to 81 |
| COC(=O)C(c1cc2c(cc1Cl)OCO2)c1cn(C)c2cc(Br)ccc12 (stereo unspecified) | 183 to 185 |
| CCCCCCCCCCCCON(Cc1ccccc1)C(c1ccccc1)P(=O)(OCCCCCCCCCCCC)OCCCCCCCCCCCC (stereo unspecified) | 38 to 40 |
| Cc1ccc(C(=O)c2c(Br)cc(CC(=O)O)n2C)cc1 | 155 to 157 |
| OC[C@H]1OC[C@@H](n2cnc3cc(Cl)c(Cl)cc32)[C@H](O)[C@@H]1O | 160 to 162 |
| N#Cc1cc(C2=NOC(c3cc(Cl)cc(Cl)c3)(C(F)(F)F)C2)ccc1-n1cc(Cl)cn1 (stereo unspecified) | 190 to 191 |
| Cn1c2cc(Cl)ccc2c(=O)c2cccn21 | 172 to 173 |
| O=C1C=C(NC(=O)C(=O)c2cn(Cc3ccc(Cl)cc3)c3cccc(CO)c23)CO1 | 238 to 240 |
| N#CCCC(=O)c1cccc(Cl)c1 | 49 to 51 |
| CS(=O)(=O)N[C@H]1CC[C@H](CCN2CCN(c3nccc4c3CCO4)CC2)CC1 | 220 |
| Nc1nnc(N2CCN(CCOc3ccccc3)CC2)[nH]1 | 131 to 133 |
| CCOC(=O)c1cnc(N2CCC[C@H]2CO)nc1NCc1ccc(OC)c(Cl)c1 | 88 to 90 |
| CCOC(=O)c1cnn(-c2cc(C(=O)Nc3cc(C(C)(C)C)cc(NS(C)(=O)=O)c3OC)ccc2C)c1 | 125 to 130 |
| Nc1ccc([C@@H](O)CNC[C@@H]2CCc3cc(S(=O)(=O)Nc4ccc(-n5nnn(CCCC6CCCC6)c5=O)cc4)ccc3O2)cn1 | 99.3 to 99.7 |
| COc1ccc2c(c1)c1c(n2CCCN(C)C)CCCSCC1 | 79 to 80 |
| CCC(C)(O)CCC1C(C)(OC(C)=O)CCC2C(C)(C)CCCC21C (stereo unspecified) | 92 to 94 |
| CS(=O)(=O)c1ccc(C(=O)Nc2ccc(Cl)c(-c3ccc(C(=O)NO)cn3)c2)c(Cl)c1 | 190 to 193 |
| CC1([C@H]2CC[C@@H](O)CC2)CC1 | 56 to 57 |
| CC(Cc1ccc(Cl)cc1Cl)NC(=O)c1cn(C)nc1C(F)F (stereo unspecified) | 157 |
| CCCCCCCCCCCCOc1ccc(C2=C(O)CSC2=O)cc1 | 173 to 175 |
| CSC(=O)C(=O)c1ccnc(NC=O)c1 | 165 to 167 |
| CC(NC1CCc2ccccc21)C(=O)O (stereo unspecified) | 248 to 250 |
| CN1C(=O)CC(C(=O)Nc2ccc(F)cc2)C(=O)c2cc(F)ccc21 (stereo unspecified) | 180 to 182 |
| COC(=O)c1nc(Br)ccc1O | 115 to 117 |
| Cc1c(Br)c(Br)c(C)c(Br)c1Br | 247 to 249 |

| SMILES | melting point [°C] |
| --- | --- |
| COC(=O)C(=Cc1ccc(OC)c(OCCc2ccccc2)c1)C(=O)OC | 105 to 106 |
| CCCN(C=Nc1ccc2nnc(-c3ncc([N+](=O)[O-])n3C)n2n1)CCC | 155 to 157 |
| O=C1Cc2cc(C(=O)N3CCN(Cc4ccccc4)CC3)ccc2N1 | 151 to 153 |
| COC(=O)c1ccccc1C(=O)Nc1cc(C(F)(F)F)on1 | 116 to 117 |
| O=C(CCl)n1ccc2cc(F)ccc21 | 236 to 237 |
| NS(=O)(=O)Nc1ccc(CCN2CCC(COC(c3ccccc3)c3ccccc3)CC2)cc1 | 172 to 174 |
| CNc1nc(-c2ccccc2)c(-c2nc3ccccc3c(=O)n2-c2ccc(OC)cc2)s1 | 235 to 236 |
| CC1=NS(=O)(=O)N(Cc2ccncc2)C=C1 | 100 to 101 |
| CC1(C)OC(C=Cc2ccc(Cl)cc2)=CC1=O | 91 to 92 |
| OCC(O)CN1CCN(c2ncccn2)CC1 (stereo unspecified) | 118 to 120 |
| CC1COc2c(C3CC3)c(F)c(N)c3c(=O)c(C(=O)O)cn1c23 (stereo unspecified) | > 280 |
| N#Cc1cc(N2CCN(CCCCCC(=O)N3Cc4ccccc4C3)CC2)cc(C(F)(F)F)c1 | 128 |
| Cc1cccc(C(=O)NC(C)C)c1NC(=O)c1cc(C(F)(F)F)nn1-c1ncccc1Cl | 194 to 196 |
| CC1(C)C2CCC3(C2)C1c1ncncc1CC3(C)C (stereo unspecified) | 44 to 45 |
| CS(=O)(=O)Nc1cccc(Nc2nc(NCC(O)CO)c3nc[nH]c3n2)c1 (stereo unspecified) | 164 to 168 |
| CS(=O)(=O)c1ccc(-c2nn3c(-c4ccc(F)cc4)coc3c2-c2ccc(F)cc2)cc1 | 200 to 202 |
| CN(c1cccc2cc(C3=NCC(CC(N)=O)S3)[nH]c12)S(=O)(=O)c1cccnc1 (stereo unspecified) | 185 to 186 |
| CSc1c(C)[nH]c2ccc([N+](=O)[O-])cc12 | 198 |
| COc1cc(OCc2ccccn2)ccc1/C=C/c1cc(/C=C/c2c[nH]c3ccc(F)cc23)n[nH]1 | 209 to 213 |
| CC(C)N1CC2(COc3ccccc3OC2)OC1=O | 118 to 120 |
| CCCC12CCC3C4CCC(=O)C=C4CCC3C1CCC2(O)CC (stereo unspecified) | 93 to 95 |
| CNC(=S)NS(=O)(=O)c1cc(CCNC(=O)c2cc(Cl)ccc2OC)ccc1-c1ccccn1 | 85 to 86 |
| COc1ccc2cc(C(=O)O)oc2c1 | 208 to 211 |
